Results taken from patent US6414014B1 (Bristol-Myers Squibb Company, priority 1992, dated 2002).

Experiments:
[1] = Hypersensitivity reactions (HSR) in the randomized taxol study; type: in vivo, patients
Method: Patients with platinum pretreated recurrent ovarian cancer were randomized to a 135 or 175 mg/m^2 dose arm, administered as a 3-hour or 24-hour IV infusion, which was repeated every three weeks. Responses were evaluated every two cycles.

[2] = Peripheral neuropathy symptoms (PNS) in the randomized taxol study; type: in vivo, patients
Method: A nurse remained with each patient for the first hour of each infusion. Temperature, pulse, blood pressure, and respiration were taken preinfusion, every 15 minutes for the first hour, every thirty minutes for the next 2 hours, hourly for the next 4 hours, and every other hour until the end of the infusion (for patients receiving the 24-hour infusion). Other observations were also documents, such as rash/redness of the skin, hives, vomiting, nausea, and any other symptoms including neuropathy and skin rashes.
80 of 157 patients (51%) experienced some sign of symptom of peripheral neurotoxicity. The incidents in the high dose arms was 66% (49/74), while the incidents in the low dose arms was 37% (31/83). The incidents of peripheral neuropathy in the long-term (24-hour) infusion was 48% (43/89), while the incidents of peripheral neuropathy in the short-term infusion arms was […] (37/68).

[3] = 6-hour IV infusion every 21 days without premedication; cited from earlier work
[4] = in vivo
Method: Patients with platinum pretreated recurrent ovarian cancer were randomized to a 135 or 175 mg/m^2 dose arm, administered as a 3-hour or 24-hour IV infusion, which was repeated every three weeks. Responses were evaluated every two cycles. All four treatment groups were matched for age, performance status, previous treatments, and time from last platinum therapy.
All rechallenge patients received a prolonged 24-hour infusion, even if the hypersensitivity reaction occurred during a 3-hour infusion. Dosage reductions in subsequent treatment courses were mandated for all patients having (1) a granulocyte count of less than 500 cells/cmm, (2) a platelet count of less than 50,000 cells/cmm for seven days or more, (3) febrile neutropenia, (4) infection, (5) hemmorage, (6) mucositis with vesiculation and/or ulcers, or (7) vomiting appearing despite anti-emitic premedication.

[5] = TOTAL, all four arms, 528 courses analyzed
[6] = arm 135/3 (mg/m^2/infusion hours), 132 courses analyzed
[7] = arm 135/24 (mg/m^2/infusion hours), 141 courses analyzed
[8] = arm 175/3 (mg/m^2/infusion hours), 92 courses analyzed
[9] = arm 175/4 (mg/m^2/infusion hours), 163 courses analyzed
[10] = arm 135/3 (mg/m^2/infusion hours), n = 39
[11] = arm 135/24 (mg/m^2/infusion hours), n = 44
[12] = arm 175/3 (mg/m^2/infusion hours), n = 29
[13] = arm 175/4 (mg/m^2/infusion hours), n = 45

CC(=O)O[C@H]1C(=O)[C@@]2(C)[C@H]([C@H](OC(=O)c3ccccc3)[C@]3(O)C[C@H](OC(=O)[C@H](O)[C@@H](NC(=O)c4ccccc4)c4ccccc4)C(C)=C1C3(C)C)[C@]1(OC(C)=O)CO[C@@H]1C[C@@H]2O [taxol]
hypersensitivity reactions which required acute therapeutic intervention ([1]; 2 of 157 patients): 1%
severe hypersensitivity reaction in one patient ([1]; 24-hour arm, course 2 at dose reduced by 20%, less than 1 ml infused): tachychardia and shortness of breath
patients exhibiting some type of hypersensitivity reaction ([1]; 57/157, all arms): 35%
Patients reporting a HSR ([1]; TOTAL, all four arms, 157 patients analyzed): 57 (36) n (%)
Courses with a reported HSR [1, 5]: 136 (26) n (%)
Type of HSR Per Course: Arrhytheria [1, 5]: 1 n (%)
Type of HSR Per Course: Chest pain [1, 5]: 1 n (%)
Type of HSR Per Course: Dyspriea [1, 5]: 5 n (%)
Type of HSR Per Course: Ederma face [1, 5]: 2 n (%)
Type of HSR Per Course: Eye disorder [1, 5]: 2 n (%)
Type of HSR Per Course: Flushing [1, 5]: 103 n (%)
Type of HSR Per Course: Headache [1, 5]: 1 n (%)
Type of HSR Per Course: Hypertension [1, 5]: 1 n (%)
Type of HSR Per Course: Hypotension [1, 5]: 13 n (%)
Type of HSR Per Course: Nausea/Vomiting [1, 5]: 1 n (%)
Type of HSR Per Course: Pruritis [1, 5]: 2 n (%)
Type of HSR Per Course: Rash [1, 5]: 21 n (%)
Type of HSR Per Course: Tachychardia [1, 5]: 1 n (%)
Patients reporting a HSR ([1]; arm 135/3 (mg/m^2/infusion hours), 39 patients analyzed): 11 (28) n (%)
Courses with a reported HSR [1, 6]: 23 (17) n (%)
Type of HSR Per Course: Dyspriea [1, 6]: 2 n (%)
Type of HSR Per Course: Eye disorder [1, 6]: 2 n (%)
Type of HSR Per Course: Flushing [1, 6]: 15 n (%)
Type of HSR Per Course: Hypotension [1, 6]: 1 n (%)
Type of HSR Per Course: Pruritis [1, 6]: 2 n (%)
Type of HSR Per Course: Rash [1, 6]: 6 n (%)
Patients reporting a HSR ([1]; arm 135/24 (mg/m^2/infusion hours), 44 patients analyzed): 18 (41) n (%)
Courses with a reported HSR [1, 7]: 44 (31) n (%)
Type of HSR Per Course: Chest pain [1, 7]: 1 n (%)
Type of HSR Per Course: Dyspriea [1, 7]: 3 n (%)
Type of HSR Per Course: Flushing [1, 7]: 40 n (%)
Type of HSR Per Course: Headache [1, 7]: 1 n (%)
Type of HSR Per Course: Hypotension [1, 7]: 1 n (%)
Type of HSR Per Course: Nausea/Vomiting [1, 7]: 1 n (%)
Type of HSR Per Course: Rash [1, 7]: 6 n (%)
Type of HSR Per Course: Tachychardia [1, 7]: 1 n (%)
Patients reporting a HSR ([1]; arm 175/3 (mg/m^2/infusion hours), 29 patients analyzed): 12 (41) n (%)
Courses with a reported HSR [1, 8]: 23 (25) n (%)
Type of HSR Per Course: Ederma face [1, 8]: 1 n (%)
Type of HSR Per Course: Flushing [1, 8]: 16 n (%)
Type of HSR Per Course: Hypotension [1, 8]: 1 n (%)
Type of HSR Per Course: Rash [1, 8]: 6 n (%)
Patients reporting a HSR ([1]; arm 175/4 (mg/m^2/infusion hours), 45 patients analyzed): 6 (36) n (%)
Courses with a reported HSR [1, 9]: 46 (28) n (%)
Type of HSR Per Course: Arrhytheria [1, 9]: 1 n (%)
Type of HSR Per Course: Ederma face [1, 9]: 1 n (%)
Type of HSR Per Course: Flushing [1, 9]: 32 n (%)
Type of HSR Per Course: Hypertension [1, 9]: 1 n (%)
Type of HSR Per Course: Hypotension [1, 9]: 10 n (%)
Type of HSR Per Course: Rash [1, 9]: 3 n (%)
patients asymptomatic prior to taxol who developed some peripheral neuropathy symptoms ([2]; 44 of 118 patients): 37%
patients with some sign or symptom of peripheral neurotoxicity ([2]; 80 of 157, all arms): 51%
First Occurence/Worsening of PNS By Cumulative Dose of Taxol: 201-400 mg/m^2 ([2]; TOTAL, all four arms, n = 157): 22 n (%)
First Occurence/Worsening of PNS By Cumulative Dose of Taxol: 401-600 mg/m^2 ([2]; TOTAL, all four arms, n = 157): 4 n (%)
First Occurence/Worsening of PNS By Cumulative Dose of Taxol: >600 mg/m^2 ([2]; TOTAL, all four arms, n = 157): 5 n (%)
First Occurence/Worsening of PNS By Cumulative Dose of Taxol: ≦200 mg/m^2 ([2]; TOTAL, all four arms, n = 157): 23 n (%)
Number of Patients Who Developed or Worsened PNS ([2]; TOTAL, all four arms, n = 157): 54 (34) n (%)
First Occurence/Worsening of PNS By Courses: Course 1 [2, 10]: 4 n (%)
First Occurence/Worsening of PNS By Courses: Course 3 [2, 10]: 1 n (%)
First Occurence/Worsening of PNS By Courses: Course 4 and more [2, 10]: 3 n (%)
First Occurence/Worsening of PNS By Cumulative Dose of Taxol: 201-400 mg/m^2 [2, 10]: 1 n (%)
First Occurence/Worsening of PNS By Cumulative Dose of Taxol: 401-600 mg/m^2 [2, 10]: 2 n (%)
First Occurence/Worsening of PNS By Cumulative Dose of Taxol: >600 mg/m^2 [2, 10]: 2 n (%)
First Occurence/Worsening of PNS By Cumulative Dose of Taxol: ≦200 mg/m^2 [2, 10]: 4 n (%)
Number of Patients Who Developed or Worsened PNS [2, 10]: 8 (21) n (%)
First Occurence/Worsening of PNS By Courses: Course 1 [2, 11]: 3 n (%)
First Occurence/Worsening of PNS By Courses: Course 2 [2, 11]: 2 n (%)
First Occurence/Worsening of PNS By Courses: Course 3 [2, 11]: 1 n (%)
First Occurence/Worsening of PNS By Courses: Course 4 and more [2, 11]: 1 n (%)
First Occurence/Worsening of PNS By Cumulative Dose of Taxol: 201-400 mg/m^2 [2, 11]: 3 n (%)
First Occurence/Worsening of PNS By Cumulative Dose of Taxol: 401-600 mg/m^2 [2, 11]: 1 n (%)
First Occurence/Worsening of PNS By Cumulative Dose of Taxol: >600 mg/m^2 [2, 11]: 1 n (%)
First Occurence/Worsening of PNS By Cumulative Dose of Taxol: ≦200 mg/m^2 [2, 11]: 3 n (%)
Number of Patients Who Developed or Worsened PNS [2, 11]: 7 (16) n (%)
First Occurence/Worsening of PNS By Courses: Course 1 [2, 12]: 7 n (%)
First Occurence/Worsening of PNS By Courses: Course 2 [2, 12]: 9 n (%)
First Occurence/Worsening of PNS By Courses: Course 3 [2, 12]: 1 n (%)
First Occurence/Worsening of PNS By Courses: Course 4 and more [2, 12]: 1 n (%)
First Occurence/Worsening of PNS By Cumulative Dose of Taxol: 201-400 mg/m^2 [2, 12]: 9 n (%)
First Occurence/Worsening of PNS By Cumulative Dose of Taxol: 401-600 mg/m^2 [2, 12]: 1 n (%)
First Occurence/Worsening of PNS By Cumulative Dose of Taxol: >600 mg/m^2 [2, 12]: 1 n (%)
First Occurence/Worsening of PNS By Cumulative Dose of Taxol: ≦200 mg/m^2 [2, 12]: 7 n (%)
Number of Patients Who Developed or Worsened PNS [2, 12]: 18 (62) n (%)
First Occurence/Worsening of PNS By Courses: Course 1 [2, 13]: 9 n (%)
First Occurence/Worsening of PNS By Courses: Course 2 [2, 13]: 8 n (%)
First Occurence/Worsening of PNS By Courses: Course 3 [2, 13]: 1 n (%)
First Occurence/Worsening of PNS By Courses: Course 4 and more [2, 13]: 2 n (%)
First Occurence/Worsening of PNS By Cumulative Dose of Taxol: 201-400 mg/m^2 [2, 13]: 8 n (%)
First Occurence/Worsening of PNS By Cumulative Dose of Taxol: 401-600 mg/m^2 [2, 13]: 2 n (%)
First Occurence/Worsening of PNS By Cumulative Dose of Taxol: >600 mg/m^2 [2, 13]: 1 n (%)
First Occurence/Worsening of PNS By Cumulative Dose of Taxol: ≦200 mg/m^2 [2, 13]: 9 n (%)
Number of Patients Who Developed or Worsened PNS [2, 13]: 20 (44) n (%)
incidence of peripheral neurotoxicity ([2]; high dose arms, 49/74): 66%
peripheral neuropathy symptoms (PNS), about 135 mg/m^2 rather than about 175 mg/m^2 ([2]; in vivo): reduced
incidence of peripheral neuropathy ([2]; long-term (24-hour) infusion, 43/89): 48%
incidence of peripheral neurotoxicity ([2]; low dose arms, 31/83): 37%
incidence of peripheral neuropathy ([2]; short-term infusion arms, 37/68): 50%
maximum tolerated dose [3]: 275 mg/m^2
patients who required a dose reduction ([4]; female, human, 9 weeks): 17%
dose reduction required, long term infusion arms versus short term infusion arms [4]: more frequently
